US11629171B2, “Beta-hairpin peptidomimetics” (POLYPHOR AG, priority 2017, dated 2023)
Values after ≈ are worked out from the molar mass of the structure shown. Where a SMILES comes first, the peptide text is derived from it. Bridges are numbered along the chain shown (N, C = ends). Roman numbers before positions name the chains, in order. [ ]: non-standard residue; d: D form. Thr(ol) = C[C@@H](O)[C@H](N)CO; Tle = CC(C)(C)[C@H](N)C(=O)O; Hiv = CC(C)[C@H](O)C(=O)O; dDab = NCC[C@@H](N)C(=O)O; hSer = N[C@@H](CCO)C(=O)O; Dab = NCC[C@H](N)C(=O)O; Abu = CC[C@H](N)C(=O)O; Dap = NC[C@H](N)C(=O)O

Experiments:
[1] = system: Acinetobacter baumannii 872842; format: cell-based; settings: 872842
Method in brief: (§1)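 Broth microdilution per CLSI; MH-II (cation-adjusted) + 0.002% P-80 final; ~10^6 CFU/mL inoculum; 2-fold peptide series; 35° C, 18-20 h; MIC = no visible growth, μg/mL.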

[2] = system: Acinetobacter baumannii DSM 30008; format: cell-based; settings: DSM 30008
Method in brief: as §1

[3] = system: Enterobacter cloacae 848840; format: cell-based; settings: 848840
Method in brief: as §1

Escherichia coli 926415 = format: cell-based; settings: 926415
Method in brief: as §1

[4] = system: Escherichia coli ATCC 25922; format: cell-based; settings: ATCC 25922
Method in brief: as §1

[5] = system: Klebsiella pneumoniae 968733; format: cell-based; settings: 968733
Method in brief: as §1

[6] = system: Klebsiella pneumoniae SSI #3010; format: cell-based; settings: SSI #3010
Method in brief: as §1

[7] = system: Pseudomonas aeruginosa ATCC 27853; format: cell-based; settings: ATCC 27853
Method in brief: as §1

[8] = system: human red blood cells (hRBC); assay: Hemolysis; format: cell-based; settings: red cells of human, 1 h, 200
Method in brief: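 Washed fresh human RBC (20% v/v) incubated with peptide at 200 μg/mL for 1 h at 37° C with shaking. Supernatant OD540 measured after dilution, blank corrected; percent hemolysis = OD540 peptide / OD540 of 2% Triton X-100 lysis × 100, PBS with 10% water as 0%.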

male ICR mice = assay: Tolerability in a mouse model (Maximum Tolerated Dose assay); format: in vivo; settings: groups of 3
Description: The tolerability of the peptides was tested in a mouse model at Pharmacology Discovery Services Taiwan Ltd, Taipei, Taiwan. The peptides were administered subcutaneously (s.c.) at 30 mg/kg or 40 mg/kg, respectively; twice at a 12-hr interval, for assessment of possible adverse effects in the Maximum Tolerated Dose (MTD) assay in male ICR (Institute of Cancer Research) mice. The peptides were dissolved in 0.9% NaCl at the concentrations either of 6 or 8 mg/mL, respectively, based on the free base molecular weight. The pH values of dosing solutions were adjusted to 6.5-7.6 before s.c. administration. A dosing volume at 5 mL/kg and a concentration of 6 or 8 mg/mL, respectively, was applied. The fresh prepared stock solution were stored at 4° C. during the study. Male ICR mice weighing 23±3 g were provided by BioLasco Taiwan (under Charles River Laboratories Licensee). Animals were acclimated for 3 days prior to use and were confirmed to be in good health. The peptides were administered s.c. at 30 mg/kg or 40 mg/kg, respectively, twice at a 12-hr interval, to groups of 3 ICR male mice and observed for the presence of acute toxic symptoms (mortality, convulsions, tremors, muscle relaxation, sedation, etc.) and autonomic effects (diarrhea, salivation, lacrimation, vasodilation, piloerection, etc.) during the first 30 min. The peptides were administered again at a 12-hr (two total doses) interval, following the first dose. The animals were then observed again for the presence of acute toxic symptoms and autonomic effects during the first 30 min.

[9] = 2 × 30 mg/kg s.c. at a 12-hr interval
[10] = 2 × 40 mg/kg s.c. at a 12-hr interval

| Structure (SMILES) | MIC [1] [µg/mL] | MIC [2] [µg/mL] | MIC [3] [µg/mL] | MIC (Escherichia coli 926415) [µg/mL] | MIC [4] [µg/mL] | MIC [5] [µg/mL] | MIC [6] [µg/mL] | MIC [7] [µg/mL] | Hemolysis at 200 μg/mL [8] [%] | Mortality and dose (male ICR mice; [9]) | Mortality and dose (male ICR mice; [10]) | Acinetobacter baumannii DSM 30008 MIC [2] [µg/mL] | Escherichia coli ATCC 25922 MIC [4] [µg/mL] | Klebsiella pneumoniae SSI #3010 MIC [6] [µg/mL] | Pseudomonas aeruginosa ATCC 27853 MIC [7] [µg/mL] |
| --- | --- | --- | --- | --- | --- | --- | --- | --- | --- | --- | --- | --- | --- | --- | --- |
| CC(=O)N[C@H](C(=O)N[C@H]1CSSC[C@@H](C(=O)N[C@@H](CO)C(N)=O)NC(=O)[C@H](C(C)C)NC(=O)[C@H](CO)NC(=O)[C@H](Cc2c[nH]c3ccccc23)NC(=O)[C@H](CCO)NC(=O)[C@@H](CCN)NC(=O)[C@H](CCC(=O)N[C@@H](CCN)C(=O)N[C@H](C(=O)N[C@@H](CCN)C(=O)N[C@H]2CCNC(=O)[C@H]([C@@H](C)O)NC(=O)[C@H](CCN)NC(=O)[C@H](CCN)NC(=O)[C@H](CC(C)C)NC(=O)[C@@H](CC(C)C)NC(=O)[C@H](CCN)NC2=O)[C@@H](C)O)NC(=O)[C@H](CCN)NC(=O)[C@H](Cc2ccc(O)cc2)NC1=O)C(C)C [Ex. 41] (I: Ac-VCY[Dab]E[dDab][hSer]WSVCS-NH2 / II: [Dab]T[Dab][Dab][Dab][dL]L[Dab][Dab]T; disulfide I:2-I:11; amide I:5-II:N; lactam II:4-II:C) | 0.125 (≈ 0.0515 µM) | 0.0625 (≈ 0.0258 µM) | 0.25 (≈ 0.103 µM) | 0.25 (≈ 0.103 µM) | 0.0625 (≈ 0.0258 µM) | 0.125 (≈ 0.0515 µM) | 0.125 (≈ 0.0515 µM) | 0.25 (≈ 0.103 µM) | <1 | 0/3 died at 2 × 30 mg/kg | – | – | – | – | – |
| CC(C)C[C@@H]1NC(=O)[C@@H](CC(C)C)NC(=O)[C@H](CCN)NC(=O)[C@@H](NC(=O)[C@H](CN)NC(=O)[C@@H](NC(=O)[C@H](CCN)NC(=O)CC[C@@H]2NC(=O)[C@H](CO)NC(=O)[C@H](Cc3ccc(O)cc3)NC(=O)[C@@H](NC(=O)[C@@H](O)C(C)C)CSSC[C@@H](C(=O)N[C@@H](CO)C(N)=O)NC(=O)[C@H](C(C)C)NC(=O)[C@H](CO)NC(=O)[C@H](Cc3c[nH]c4ccccc34)NC(=O)[C@H](CCN)NC(=O)[C@@H](CCN)NC2=O)[C@@H](C)O)CCNC(=O)[C@H]([C@@H](C)O)NC(=O)[C@H](CCN)NC(=O)[C@H](CCN)NC1=O [Ex. 270] (I: H-[Hiv]CYSE[dDab][Dab]WSVCS-NH2 / II: [Dab]T[Dap][Dab][Dab][dL]L[Dab][Dab]T; disulfide I:2-I:11; amide I:5-II:N; lactam II:4-II:C) | 0.0625 (≈ 0.0265 µM) | 0.0625 (≈ 0.0265 µM) | 0.25 (≈ 0.106 µM) | 0.125 (≈ 0.053 µM) | 0.0625 (≈ 0.0265 µM) | 0.125 (≈ 0.053 µM) | 0.0625 (≈ 0.0265 µM) | 0.125 (≈ 0.053 µM) | <1 | – | 0/3 died at 2 × 40 mg/kg | – | – | – | – |
| CC(C)C[C@@H]1NC(=O)[C@@H](CC(C)C)NC(=O)[C@H](CCN)NC(=O)[C@@H](NC(=O)[C@H](CCN)NC(=O)[C@@H](NC(=O)[C@H](CCN)NC(=O)CC[C@@H]2NC(=O)[C@@H](NC(=O)[C@H](Cc3ccc(O)cc3)NC(=O)[C@@H](NC(=O)[C@@H](O)C(C)C)[C@@H](C)O)CSSC[C@@H](C(=O)N[C@H](C(=O)N[C@@H](C)C(=O)N[C@H](CO)[C@@H](C)O)C(C)(C)C)NC(=O)[C@H](Cc3c[nH]c4ccccc34)NC(=O)[C@H]([C@@H](C)O)NC(=O)[C@@H](CCN)NC2=O)[C@@H](C)O)CCNC(=O)[C@H]([C@@H](C)O)NC(=O)[C@H](CCN)NC(=O)[C@H](CCN)NC1=O [Ex. 188] (I: H-[Hiv]TYCE[dDab]TWC[Tle]A[Thr(ol)] / II: [Dab]T[Dab][Dab][Dab][dL]L[Dab][Dab]T; disulfide I:4-I:9; amide I:5-II:N; lactam II:4-II:C) | 0.5 (≈ 0.21 µM) | 0.125 (≈ 0.0524 µM) | 0.5 (≈ 0.21 µM) | 0.5 (≈ 0.21 µM) | 0.0625 (≈ 0.0262 µM) | 1 (≈ 0.419 µM) | 0.25 (≈ 0.105 µM) | 0.5 (≈ 0.21 µM) | <1 | 0/3 died at 2 × 30 mg/kg | – | – | – | – | – |
| CC[C@@H]1NC(=O)[C@H](CO)NC(=O)[C@H](Cc2c[nH]c3ccccc23)NC(=O)[C@H](CO)NC(=O)[C@@H](CCN)NC(=O)[C@H](CCC(=O)N[C@@H](CCN)C(=O)N[C@H](C(=O)N[C@@H](CN)C(=O)N[C@H]2CCNC(=O)[C@H]([C@@H](C)O)NC(=O)[C@H](CCN)NC(=O)[C@H](CCN)NC(=O)[C@H](CC)NC(=O)[C@@H](CC(C)C)NC(=O)[C@H](CCN)NC2=O)[C@@H](C)O)NC(=O)[C@H](CCN)NC(=O)[C@H](Cc2ccc(O)cc2)NC(=O)[C@@H](NC(=O)[C@@H](NC(C)=O)C(C)C)CSSC[C@@H](C(=O)N[C@@H](CO)C(N)=O)NC1=O [Ex. 339] (I: Ac-VCY[Dab]E[dDab]SWS[Abu]CS-NH2 / II: [Dab]T[Dap][Dab][Dab][dL][Abu][Dab][Dab]T; disulfide I:2-I:11; amide I:5-II:N; lactam II:4-II:C) | 0.125 (≈ 0.053 µM) | – | 0.125 (≈ 0.053 µM) | 0.5 (≈ 0.212 µM) | – | 0.5 (≈ 0.212 µM) | – | – | <1 | – | 0/3 died at 2 × 40 mg/kg | 0.0625 | 0.0625 | 0.0625 | 0.125 |
| CC(C)C[C@@H]1NC(=O)[C@@H](CC(C)C)NC(=O)[C@H](CCN)NC(=O)[C@@H](NC(=O)[C@H](CN)NC(=O)[C@@H](NC(=O)[C@H](CCN)NC(=O)CC[C@@H]2NC(=O)[C@H](CCN)NC(=O)[C@H](Cc3ccc(O)cc3)NC(=O)[C@@H](NC(=O)[C@@H](O)C(C)C)CSSC[C@@H](C(=O)N[C@H](CO)C(N)=O)NC(=O)[C@H](C(C)C)NC(=O)[C@H](CO)NC(=O)[C@H](Cc3c[nH]c4ccccc34)NC(=O)[C@H](CO)NC(=O)[C@@H](CCN)NC2=O)[C@@H](C)O)CCNC(=O)[C@H]([C@@H](C)O)NC(=O)[C@H](CCN)NC(=O)[C@H](CCN)NC1=O [Ex. 344] (I: H-[Hiv]CY[Dab]E[dDab]SWSVC[dS]-NH2 / II: [Dab]T[Dap][Dab][Dab][dL]L[Dab][Dab]T; disulfide I:2-I:11; amide I:5-II:N; lactam II:4-II:C) | 0.25 (≈ 0.106 µM) | – | 1 (≈ 0.424 µM) | 0.125 (≈ 0.053 µM) | – | 0.25 (≈ 0.106 µM) | – | – | <1 | – | 0/3 died at 2 × 40 mg/kg | 0.125 | 0.0625 | 0.0625 | 0.125 |
| CC(C)C[C@@H]1NC(=O)[C@@H](CC(C)C)NC(=O)[C@H](CCN)NC(=O)[C@@H](NC(=O)[C@H](CCN)NC(=O)[C@@H](NC(=O)[C@H](CCN)NC(=O)CC[C@@H]2NC(=O)[C@H](CN)NC(=O)[C@H](Cc3ccc(O)cc3)NC(=O)[C@@H](NC(=O)[C@@H](O)C(C)C)CSSC[C@@H](C(=O)N[C@H](CO)[C@@H](C)O)NC(=O)[C@H](C(C)(C)C)NC(=O)[C@H](CO)NC(=O)[C@H](Cc3c[nH]c4ccccc34)NC(=O)[C@H]([C@@H](C)O)NC(=O)[C@@H](CCN)NC2=O)[C@@H](C)O)CCNC(=O)[C@H]([C@@H](C)O)NC(=O)[C@H](CCN)NC(=O)[C@H](CCN)NC1=O [Ex. 58] (I: H-[Hiv]CY[Dap]E[dDab]TWS[Tle]C[Thr(ol)] / II: [Dab]T[Dab][Dab][Dab][dL]L[Dab][Dab]T; disulfide I:2-I:11; amide I:5-II:N; lactam II:4-II:C) | 0.0625 (≈ 0.0262 µM) | 0.0625 (≈ 0.0262 µM) | 0.125 (≈ 0.0524 µM) | 0.125 (≈ 0.0524 µM) | 0.0625 (≈ 0.0262 µM) | 0.25 (≈ 0.105 µM) | 0.125 (≈ 0.0524 µM) | 0.25 (≈ 0.105 µM) | 1 | 0/3 died at 2 × 30 mg/kg | – | – | – | – | – |
